The results in this text go back to US8642801B2 (BHI Limited Partnership, priority 2003, dated 2014).

Where a name gives a salt, the structure may show the parent alone.

The first experiment addresses T1, Aβ40 and Aβ42 peptides in plasma and brain of TgCRND8 mice (Homo sapiens, UniProt P05067).
T1 construct: ELISA using Human Aβ40 and Aβ42 Fluorometric ELISA kits from Biosource; from tissue; host or cells: plasma and brain homogenate of TgCRND8 transgenic mice (hAPP transgene)
Nature of the experiment: Short term treatment in adult transgenic CRND8 mice overexpressing βAPP: Aβ levels in plasma and brain by ELISA. It is filed as in vivo, Mouse. To be noted: Brain Homogenate Vehicle Group, Day 14; TgCRND8 mice, 250 mg/kg daily. The source says: Transgenic mice, […]8, expressing the human amyloid precursor protein (hAPP) develop a pathology resembling Alzheimer's disease. In particular, high levels of Aβ40 and Aβ 42 have been documented in the plasma and the brain of these animals at 8-9 weeks of age, followed by early accumulation of amyloid plaques similar to the senile plaques observed in AD patients. These animals also display progressive cognitive deficits that parallel the appearance of degenerative changes. See, […], et al., J. Biol. Chem. 276, 21562-70 (2001). The short term therapeutic effect of 19 compounds of the invention was studied. […] The following abbreviations are used to designate these animals from the 3rd and 4th generation backcross in the present protocol: TgCRND8-2.B6C3F1(N3); TgCRND8-2.B6C3F1(N4). Baseline animals (Group 1) consisted of naive TgCRND8-2. B6C3F1(N3) at 11±1 weeks of age. These mice were used to determine the Aβ levels in the plasma and brain of naive transgenic animals at the initiation of treatment. […] At the end of the treatment periods, plasma and perfused brains were collected for quantification of Aβ levels. […] Plasma samples were immediately frozen and stored at -80° C. pending analysis. The brains were removed, frozen, and stored at -80° C. awaiting analysis. […] Samples were spun at 15000 g for 20 minutes and the supernatants were transferred to fresh tubes. […] The tubes were vortexed for 30 seconds and frozen at -80° C. […] Samples were thawed at room temperature, sonicated at 80° C. for 15 minutes and frozen again. This cycle was repeated 3 times to ensure homogeneity and samples were returned to -80° C. pending analysis. Aβ levels were evaluated in plasma and brain samples by ELISA using Human Aβ40 and Aβ42 Fluorometric ELISA kits from Biosource (Cat. […] In short, samples were thawed at room temperature, sonicated for 5 minutes at 80° C. (sonication for brain homogenates; no sonication for plasma samples) and kept on ice. Aβ peptides were captured using 100 μl of the diluted samples to the plate and incubated without shaking at 4° C. overnight. The samples were aspirated and the wells were rinsed 4 times with wash buffer obtained from the Biosource ELISA kit. The anti-Aβ40 or anti-Aβ42 rabbit polyclonal antiserum (specific for the Aβ40 or Aβ42 peptide) was added (100 μl) and the plate was incubated at room temperature for 2 hours with shaking. The wells were aspirated and washed 4 times before adding 100 μl of the alkaline phosphatase labeled anti-rabbit antibody and incubating at room temperature for 2 hours with shaking. The plates were then rinsed 5 times and the fluorescent substrate (100 μl) was added to the plate. The plate was incubated for 35 minutes at room temperature and the plate was read using a titer plate reader at an excitation wavelength of 460 nm and emission at 560 nm Compounds were scored based on their ability to modulate levels of Aβ peptides in the plasma and the cerebral soluble/insoluble levels in the brain. Levels of Aβ observed in the plasma and brain of treated animals were normalized using values from vehicle-treated (water) or methylcellulose-treated control groups and ranked according to the strength of the pharmacological effect. Increases in the levels of Aβ peptides are indicated using “+” symbols, while decreases in the levels of Aβ peptides are indicated using “-” symbols. The strongest effects are recorded as “+++” or “- - -” while the weakest are shown as “+” or “-”.
(In general: ELISA stands for enzyme-linked immunosorbent assay.)
On to `CC1CC(NCCCS(=O)(=O)O)CC(C)(C)C1` (stereo not drawn) [ED, 3-(3,3,5-trimethylcyclohexyl)amino-1-1-propanesulfonic acid], for which the “Brain homogenate Aβ40 Change Insoluble” value was “+ (increases in the levels of Aβ (relative to untreated control) of 20 to 39% are scored as “+”)” and the “Brain homogenate Aβ40 Change Soluble” value is on record as “− (Decreases in the levels of Aβ of 5 to 19% are scored as “−”)”.

The experiment is the same for the next values; noted with them: Brain Homogenate Vehicle Group, Day 14; total levels, soluble and insoluble not measured independently; 250 mg/kg daily.
With `CCNCCCS(=O)(=O)O` [CV, 3-ethylamino-1-propanesulfonic acid], the “Brain homogenate Aβ40 Change, total level” value is “− (Decreases in the levels of Aβ of 5 to 19% are scored as “−”)”.

The same experiment, now with this note: Brain Homogenate Vehicle Group, Day 28; TgCRND8 mice, 250 mg/kg daily.
On to `CC1CC(NCCCS(=O)(=O)O)CC(C)(C)C1` (stereo not drawn) [ED, 3-(3,3,5-trimethylcyclohexyl)amino-1-1-propanesulfonic acid], for which the “Brain homogenate Aβ40 Change Insoluble” value is “−− (decreases of 20 to 38% are scored as “− −”)”, the “Brain homogenate Aβ40 Change Soluble” value is recorded as “− (Decreases in the levels of Aβ of 5 to 19% are scored as “−”)”, the “Brain homogenate Aβ42 Change Insoluble” value was “− (Decreases in the levels of Aβ of 5 to 19% are scored as “−”)” and the “Brain homogenate Aβ42 Change Soluble” value is given as “− (Decreases in the levels of Aβ of 5 to 19% are scored as “−”)”.

Still in this experiment, the particulars now being: Brain Homogenate Vehicle Group, Day 28; total levels, soluble and insoluble not measured independently; 250 mg/kg daily.
For `CCNCCCS(=O)(=O)O` [CV, 3-ethylamino-1-propanesulfonic acid], the “Brain homogenate Aβ40 Change, total level” value is “++ (increases of 40 to 69% are scored as “++”)” and the “Brain homogenate Aβ42 Change, total level” value is reported as “+++ (increases of 70% or higher are scored as “+ + +”)”.

Still in this experiment, the particulars now being: Plasma Vehicle Group, Day 14; TgCRND8 mice, 250 mg/kg daily subcutaneous, normalized to water vehicle control.
Take `CCNCCCS(=O)(=O)O` [CV, 3-ethylamino-1-propanesulfonic acid]: the “Plasma Aβ40 Change” value is reported as “+ (increases in the levels of Aβ (relative to untreated control) of 20 to 39% are scored as “+”)” and the “Plasma Aβ42 Change” value is reported as “++ (increases of 40 to 69% are scored as “++”)”.

Still in this experiment, the particulars now being: Plasma Vehicle Group, Day 28; TgCRND8 mice, 250 mg/kg daily subcutaneous, normalized to water vehicle control.
As for `CCNCCCS(=O)(=O)O` [CV, 3-ethylamino-1-propanesulfonic acid], the “Plasma Aβ40 Change” value is “++ (increases of 40 to 69% are scored as “++”)” and the “Plasma Aβ42 Change” value is on record as “++ (increases of 40 to 69% are scored as “++”)”.

The target in the next experiment is T2, IAPP (Homo sapiens, UniProt P10997).
T2 construct: which is a 37 amino acid peptide, derived from a larger precursor peptide, called pro-IAPP
T2 sequence (P10997 34-70 limits assumed): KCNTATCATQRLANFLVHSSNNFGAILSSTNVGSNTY
Nature of the experiment: MS (electrospray mass spectrometry) binding assay for IAPP. To be noted: Table 3B; 30 μM Aβ peptide, 150 μM compound (so in the source).
Take `CCNCCC(C)S(=O)(=O)O` (stereo not drawn) [JQ, 4-(ethylamino)-2-butanesulfonic acid, sodium salt]: the “MS binding IAPP” value was “+++ (60-100% binding=(+++))”.

As to `CC(CCNCc1ccccc1)S(=O)(=O)[O-].[Na+]` (stereo not drawn) [JP, 4-(benzylamino)-2-butanesulfonic acid, sodium salt], the “MS binding IAPP” value is recorded as “+++ (60-100% binding=(+++))”.

Regarding `CC(C)(C)NCCS(=O)(=O)O` [KS], the “MS binding IAPP” value was “+++ (60-100% binding=(+++))”.

`N[C@@H](Cc1ccccc1)C(=O)NCCS(=O)(=O)O` [KT]: the “MS binding IAPP” value was “++ (40-59% binding=(++))”.

On to `N[C@@H](Cc1ccccc1)C(=O)NCCCS(=O)(=O)O` [KN], for which the “MS binding IAPP” value was “++ (40-59% binding=(++))”.

For the compound `CC(C)(C)NCC(O)CS(=O)(=O)O` (stereo not drawn) [JV, 3-(tert-butylamino)-2-hydroxy-1-propanesulfonic acid], the “MS binding IAPP” value was “++ (40-59% binding=(++))”.

Turning to `O=S(=O)(O)CCCCNC1CCCCC1` [LK, 4-(cyclohexylamino)-1-butanesulfonic acid], the “MS binding IAPP” value is reported as “++ (40-59% binding=(++))”.

As to `CC(C)CCNCCC(C)S(=O)(=O)O` (stereo not drawn) [KH, 4-[(3-methylbutyl)amino]-2-butanesulfonic acid], the “MS binding IAPP” value was “++ (40-59% binding=(++))”.

Consider `O=S(=O)(O)CC(O)CNC1C2CC3CC(C2)CC1C3` (stereo not drawn) [KJ, 3-(2-adamantylamino)-2-hydroxy-1-propanesulfonic acid], for which the “MS binding IAPP” value is reported as “+++ (60-100% binding=(+++))”.

Regarding `O=S(=O)(O)CCCCNC1C2CC3CC(C2)CC1C3` (stereo not drawn) [LN, 4-(2-adamantyl)amino-1-butanesulfonic acid], the “MS binding IAPP” value was “+++ (60-100% binding=(+++))”.

On to `CC(CCNC1CCCCC1)S(=O)(=O)O` (stereo not drawn) [KM, 4-(cyclohexylamino)-2-butanesulfonic acid], for which the “MS binding IAPP” value was “+++ (60-100% binding=(+++))”.

In the case of `O=S(=O)([O-])CC(O)CNC12CC3CC(CC(C3)C1)C2.[Na+]` (stereo not drawn) [KB, 4-(adamantan-1-ylamino)-2-hydroxy-1-propanesulfonic acid], the “MS binding IAPP” value was “+++ (60-100% binding=(+++))”.

Still in this experiment, the particulars now being: Table 3D; 40 μM Aβ peptide, 400 μM compound (so in the source).
`COC(=O)[C@@H](Cc1ccc(I)cc1)NCCCS(=O)(=O)O` [IB]: the “MS binding IAPP” value is on record as “+ (20-39% binding=(+))”.

Consider `O=[N+]([O-])c1cccc2c[n+](CCCS(=O)(=O)[O-])ccc12` [IJ], for which the “MS binding IAPP” value was “+ (20-39% binding=(+))”.

With `O=C(O)c1ccc2[nH]c3c(c2c1)CCN(CCCCS(=O)(=O)O)C3` [LA], the “MS binding IAPP” value is recorded as “− (<20%=(−))”.

For the compound `O=S(=O)(O)CCCn1cc[n+](CCCS(=O)(=O)O)c1` [HS], the “MS binding IAPP” value is on record as “− (<20%=(−))”.

Take `O=[N+]([O-])c1ccc2c(c1)CN(CCCS(=O)(=O)O)CC2` [IL]: the “MS binding IAPP” value is on record as “+ (20-39% binding=(+))”.

In the case of `C[N+](C)(CCCS(=O)(=O)[O-])CCCS(=O)(=O)O` [IF], the “MS binding IAPP” value is listed as “− (<20%=(−))”.

As for `CC(=O)N(C(C)=O)c1cccc2c[n+](CCCS(=O)(=O)[O-])ccc12` [II], the “MS binding IAPP” value is on record as “− (<20%=(−))”.

Consider `O=S(=O)([O-])CCC[n+]1ccn(CCCS(=O)(=O)O)c1` [HP], for which the “MS binding IAPP” value is given as “− (<20%=(−))”.

Turning to `O=C(O)c1ccc2[nH]c3c(c2c1)CCN(CCCS(=O)(=O)O)C3` [IU], the “MS binding IAPP” value is on record as “− (<20%=(−))”.

With `O=C(NCCCCS(=O)(=O)O)OCc1ccccc1` [KV], the “MS binding IAPP” value is reported as “+ (20-39% binding=(+))”.

For `NCCCCCS(=O)(=O)O` [LP], the “MS binding IAPP” value is “+++ (75-100% binding=(+++))”.

For the compound `Nc1ccc2c(c1)CN(CCCS(=O)(=O)O)CC2` [IM], the “MS binding IAPP” value is listed as “− (<20%=(−))”.

Turning to `O=[N+]([O-])c1ccc2[nH]c3c(c2c1)CCN(CCCS(=O)(=O)O)C3` [IT], the “MS binding IAPP” value is “+ (20-39% binding=(+))”.

Regarding `O=S(=O)(O)CCCN/C=C\NCCCS(=O)(=O)O` [HX], the “MS binding IAPP” value was “− (<20%=(−))”.

Consider `O=S(=O)(O)CCCn1cc[n+](CCCn2ccnc2)c1` [HW], for which the “MS binding IAPP” value is on record as “− (<20%=(−))”.

Turning to `O=S(=O)(O)CCCCN1CCc2c([nH]c3ccc(Br)cc23)C1` [KX], the “MS binding IAPP” value is listed as “+ (20-39% binding=(+))”.

For the compound `O=S(=O)(O)CCCN1CCc2ccc(Br)cc2C1` [IN], the “MS binding IAPP” value was “+ (20-39% binding=(+))”.

In the case of `O=C(O)CNCCCS(=O)(=O)O` [HZ], the “MS binding IAPP” value is listed as “− (<20%=(−))”.

As to `O=[N+]([O-])c1ccc2[nH]c3c(c2c1)CCN(CCCCS(=O)(=O)O)C3` [KY], the “MS binding IAPP” value is on record as “+ (20-39% binding=(+))”.

For the compound `O=S(=O)(O)CCCN1CCc2c([nH]c3ccc(Br)cc23)C1` [IR], the “MS binding IAPP” value is “+ (20-39% binding=(+))”.

Take `[N-]=[N+]=NCCCS(=O)(=O)O` [HN]: the “MS binding IAPP” value is “− (<20%=(−))”.

On to `Nc1cccc2c1CCN(CCCS(=O)(=O)O)C2` [IH], for which the “MS binding IAPP” value is “+ (20-39% binding=(+))”.

In the case of `O=S(=O)(O)CCCN1CCc2c(Br)cccc2C1` [IK], the “MS binding IAPP” value was “+ (20-39% binding=(+))”.

For the compound `O=S(=O)(O)CCCN1CCc2c(I)cccc2C1` [IP], the “MS binding IAPP” value is on record as “+ (20-39% binding=(+))”.

As to `NCCCCC(NCCCS(=O)(=O)O)C(=O)O` (stereo not drawn) [HY], the “MS binding IAPP” value is “− (<20%=(−))”.

Take `Nc1ccc2[nH]c3c(c2c1)CCN(CCCCS(=O)(=O)O)C3` [KW]: the “MS binding IAPP” value is “+ (20-39% binding=(+))”.
